In US5703129A, “5-amino-6-cyclohexyl-4-hydroxy-hexanamide derivatives as inhibitors of β-amyloid protein production” (Bristol-Myers Squibb Company, priority 1996, dated 1997):
Where a name gives a salt, the structure may show the parent alone.

Biological target: T1, γ-Secretase (Homo sapiens, UniProt P49768)
T1 construct: transfected H4 (human neuroglioma) cells stably expressing constructs containing wild-type and mutant forms of β-APP; endogenous in cells; host or cells: H4 human neuroglioma cells, stably transfected with beta-APP (the substrate, not the enzyme)
Experiment: Inhibition of γ-secretase: ELISA of β-AP made by transfected H4 cells in culture
Type: cell-based
Conditions: H4 (human neuroglioma) cells expressing β-APP (Swedish variant typically), approximately 16 hours incubation, β-AP in conditioned medium by ELISA
Description: Production and detection of β-AP made by cells in culture. The use of transfected H4 (human neuroglioma) cells stably expressing constructs containing wild-type and mutant forms of β-APP have been used to identify inhibitors of β-AP production. The Swedish variant of β-APP produces 5-7 fold more β-AP than the wild type and is typically used due to its enhanced signal. […] The capture antibody is typically a mouse monoclonal (IgG1/kβ-APPa). The antibody recognizes the carboxyl terminal epitope of β-AP. The specificity of the capture antibody ensures measurement of β-AP without interference by other secreted β-APP fragments that share amino acid sequence (β-AP1-16) with β-AP. The detecting antibody is typically an affinity purified rabbit polyclonal antibody, specific for the amino terminus of β-AP. In the cell-based assay conditioned medium from H4 cells is tested by ELISA for the quantity of β-AP present. The cell-based assay can be used to identify compounds that inhibit β-AP production. The assay should detect agents that inhibit cleavage at the β-secretase and/or the γ-secretase cleavage site as well as detecting any agent that interferes with the production and/or release of β-AP.
A typical ELISA-based assay requires plating of the transfected cells at a density sufficient for the rapid detection of the secreted β-AP (experimentally predetermined for a particular stable cell population) in a 96-well format. Cells are plated for at least six hours prior to the introduction of the test compound at which time the growth medium is replaced by fresh medium containing the agent to be tested. Test agents may typically consist of synthetic compounds, secondary metabolites from bacterial or fungal fermentation extracts, or extracts from plant or marine samples. All synthetic agents are initially screened at doses ranging from 10-100 μM or in the case of extracts at sufficient dilution to minimize cytotoxicity. Incubation of the cells with the test agent will continue for approximately 16 hours at which time equal aliquots of media from each sample well is removed and placed into a previously prepared ELISA plate for β-AP quantitation. The ELISA is carried out in a manner described by others (Haass, et al., 1992; Hawlow and Lane, 1988) and the β-AP signal quantitated. Results are obtained by analysis of the ELISA plate following development and comparison to the mock treated cell populations and samples in which known amounts of β-AP were added to construct a standard concentration curve. […] If a compound is found to be active, then a dose response experiment is performed to determine the lowest dose of compound necessary to elicit the inhibition of the production of β-AP.

Activity Rating (Inhibition of γ-Secretase), +++ (+++ < = 10):
CC(C)CNC(=O)[C@@H](C[C@H](O)[C@H](CC1CCCCC1)NC1CCCC(C)C1)C(C)C (relative stereo) [Example 42, [αS(αR*,γR*,δR*)]-γ-Hydroxy-δ-[(3-methylcyclohexyl)amino]-α-(1-methylethyl)-N-(2-methylpropyl)cyclohexanehexanamide]
CC(C)CNC(=O)[C@@H](C[C@H](O)[C@H](CC1CCCCC1)NC1CCC(C)C1)C(C)C (relative stereo) [Example 43, [αS(αR*,γR*,δR*)]-γ-Hydroxy-δ-[(3-methylcyclopentyl)amino]-α-(1-methylethyl)-N-(2-methylpropyl)cyclohexanehexanamide]
CCCCNC(=O)[C@@H](C[C@H](O)[C@H](CC1CCCCC1)NC1CCC(C(C)C)CC1)C(C)C (relative stereo) [Example 44, [αS(αR*,γR*,δR*)]-N-butyl-γ-hydroxy-α-(1-methylethyl)-δ-[[4-(1-methylethyl)cyclohexyl]amino]cyclohexanehexanamide hydrochloride]
CCCCCN[C@@H](CC1CCCCC1)[C@@H](O)C[C@H](C(=O)NCCCC)C(C)C (relative stereo) [Example 45, [αS(αR*,γR*,δR*)]-N-Butyl-γ-hydroxy-α-(1-methylethyl)-δ-(pentylamino)cyclohexanehexanamide hydrochloride]
CCCCNC(=O)[C@@H](C[C@H](O)[C@H](CC1CCCCC1)NCCCC1CC1)C(C)C (relative stereo) [Example 46, [αS(αR*,γR*,δR*)]-N-Butyl-δ-[(3-cyclopropyl)propyl]amino-γ-hydroxy-α-(1-methylethyl)cyclohexanehexanamide hydrochloride]
CCCCNC(=O)[C@@H](C[C@H](O)[C@H](CC1CCCCC1)NCCCC1CCCC1)C(C)C (relative stereo) [Example 47, [αS(αR*,γR*,δR*)]-N-Butyl-δ-[(3-cyclopentyl)propyl]amino-γ-hydroxy-α-(1-methylethyl)cyclohexanehexanamide hydrochloride]
CCCCNC(=O)[C@@H](C[C@H](O)[C@H](CC1CCCCC1)NCCC1CCCCC1)C(C)C (relative stereo) [Example 48, [αS(αR*,γR*,δR*)]-N-Butyl-δ-[(3-cyclohexyl)ethyl]amino-γ-hydroxy-α-(1-methylethyl)cyclohexanehexanamide hydrochloride]
CC(C)=CCCN[C@@H](CC1CCCCC1)[C@@H](O)C[C@H](C(=O)NCC(C)C)C(C)C (relative stereo) [Example 49, [αS(αR*,γR*,δR*)]-γ-hydroxy-α-(1-methylethyl)-δ-[(4-methyl-3-pentenyl)amino]-N -(2-methylpropyl)cyclohexanehexanamide]
